We go through one compound from BindingDB's records for doi:10.1002/ps.3406 (2013).

This experiment has as its target Ryanodine receptor (Myzus persicae). In words: Binding affinity to Myzus persicae (green peach aphid) ryanodine receptor by radioligand binding assay.

As for `CNC(=O)c1cc(Cl)cc(C)c1NC(=O)c1cc(Br)nn1-c1ncccc1Cl` [3-bromo-N-(4-chloro-2-methyl-6-(methylcarbamoyl)phenyl)-1-(3-chloropyridin-2-yl)-1H-pyrazole-5-carboxamide], the IC50 – broadly, the point on the concentration scale where inhibition reaches its midpoint – was found to be 2 nM.
